Data as given in US20100311714A1, “1H-IMIDAZO[4,5-c]QUINOLINONE COMPOUNDS” (priority 2009, published 2010).
pIC50: −log10 of the molar value. Read-outs that look alike come from different tables or passages of the source.

Legend:
[1] = test system: S6 Ribosomal Protein phosphorylation Ser235/236 in TSC1 null mouse embryo fibroblast (MEF) cells; experiment: Reverse protein array, S6 Ribosomal Protein phosphorylation in TSC1 null MEF cells; format: cell-based; details: 1 h, TSC1-/- MEFs, 60 minutes
Outline: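 Phospho-S6 (Ser235/236) was quantified by reverse protein array of cell lysates with a phospho-specific primary antibody. […]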

[2] = test system: PKB Ser473 phosphorylation in Rat1-myr-HA-p110 beta cells; experiment: Reverse protein array, PKB Ser473 phosphorylation in Rat1-myr-HA-p110 beta cells; format: cell-based; details: Rattus norvegicus, 0.5 h, 30 minutes compound incubation, read-out: p-PKB/IC50_beta

| SMILES | pIC50 [2] | pIC50 ([1]; read-out: p-S6 IC50) | pIC50 ([1]; read-out: p-S6) |
| --- | --- | --- | --- |
| CCOc1cc(-c2ccc3ncc4c(c3c2)n(-c2ccc(N3CCCC3)nc2C)c(=O)n4C)cnc1COC [Example 25.2, 8-(5-Ethoxy-6-methoxymethyl-pyridin-3-yl)-3-methyl-1-(2-methyl-6-pyrrolidin-1-yl-pyridin-3-yl)-1,3-dihydro-imidazo[4,5-c]quinolin-2-one] | 7.40 | 8.70 | – |
| Cc1ncccc1-n1c(=O)n(C)c2cnc3ccc(-c4ccc(CO)nc4)cc3c21 [Example 2.6, 8-(6-Hydroxymethyl-pyridin-3-yl)-3-methyl-1-(2-methyl-pyridin-3-yl)-1,3-dihydro-imidazo[4,5-c]quinolin-2-one] | 7.14 | – | 7.18 |
| Cc1nc(N(C)CCO)ccc1-n1c(=O)n(C)c2cnc3ccc(-c4cnc(N)c(C(F)(F)F)c4)cc3c21 [Example 26.1, 8-(6-Amino-5-trifluoromethyl-pyridin-3-yl)-1-{6-[(2-hydroxy-ethyl)-methyl-amino]-2-methyl-pyridin-3-yl}-3-methyl-1,3-dihydro-imidazo[4,5-c]quinolin-2-one] | > 8.34 | > 9.34 | – |
| Cc1nc(F)ccc1-n1c(=O)n(C)c2cnc3ccc(-c4cnc5c(ccn5C)c4)cc3c21 [Example 7.2, 1-(6-Fluoro-2-methyl-pyridin-3-yl)-3-methyl-8-(1-methyl-1H-pyrrolo[2,3-b]pyridin-5-yl)-1,3-dihydro-imidazo[4,5-c]quinolin-2-one] | 7.53 | – | 7.75 |
| CCNc1cc(-c2ccc3ncc4c(c3c2)n(-c2cccnc2C)c(=O)n4C)cnc1CO [Example 2.31, 8-(5-Ethylamino-6-hydroxymethyl-pyridin-3-yl)-3-methyl-1-(2-methyl-pyridin-3-yl)-1,3-dihydro-imidazo[4,5-c]quinolin-2-one] | 8.24 | 7.68 | – |
| COc1ccc(-c2ccc3ncc4c(c3c2)n(-c2cnccc2C)c(=O)n4C)cn1 [Example 4.3, 8-(6-Methoxy-pyridin-3-yl)-3-methyl-1-(4-methyl-pyridin-3-yl)-1,3-dihydro-imidazo[4,5-c]quinolin-2-one] | 6.44 | – | 6.66 |
| CCOc1cc(-c2ccc3ncc4c(c3c2)n(-c2ccc(F)nc2C)c(=O)n4C)cnc1COC [Example 7.5, 8-(5-Ethoxy-6-methoxymethyl-pyridin-3-yl)-1-(6-fluoro-2-methyl-pyridin-3-yl)-3-methyl-1,3-dihydro-imidazo[4,5-c]quinolin-2-one] | 7.09 | 7.68 | – |
| CNc1ncc(-c2ccc3ncc4c(c3c2)n(-c2ccc(N3CC[C@H](O)C3)nc2C)c(=O)n4C)cc1F [Example 32.2, 8-(5-Fluoro-6-methylamino-pyridin-3-yl)-1-[6-((S)-3-hydroxy-pyrrolidin-1-yl)-2-methyl-pyridin-3-yl]-3-methyl-1,3-dihydro-imidazo[4,5-c]quinolin-2-one] | 7.82 | 9.00 | – |
| CCNc1ncc(-c2ccc3ncc4c(c3c2)n(-c2ccc(N3CC[C@@H](O)C3)nc2C)c(=O)n4C)cc1C(F)(F)F [Example 34.2, 8-(6-Ethylamino-5-trifluoromethyl-pyridin-3-yl)-1-[6-((R)-3-hydroxy-pyrrolidin-1-yl)-2-methyl-pyridin-3-yl]-3-methyl-1,3-dihydro-imidazo[4,5-c]quinolin-2-one] | 7.82 | 8.72 | – |
| COc1cc(-c2ccc3ncc4c(c3c2)n(-c2ccc(N3CC(O)C3)nc2C)c(=O)n4C)cnc1CO [Example 29.5, 1-[6-(3-Hydroxy-azetidin-1-yl)-2-methyl-pyridin-3-yl]-8-(6-hydroxymethyl-5-methoxy-pyridin-3-yl)-3-methyl-1,3-dihydro-imidazo[4,5-c]quinolin-2-one] | 6.43 | 7.41 | – |
| COc1ncccc1-n1c(=O)n(C)c2cnc3ccc(-c4ccc(C(N)=O)cc4)cc3c21 [Example 1.6, 4-[1-(2-Methoxy-pyridin-3-yl)-3-methyl-2-oxo-2,3-dihydro-1H-imidazo[4,5-c]quinolin-8-yl]-benzamide] | 7.77 | – | 7.66 |
| Cc1nc(N2CC[C@H](O)C2)ccc1-n1c(=O)n(C)c2cnc3ccc(-c4cncc(OC(C)C)c4)cc3c21 [Example 32.8, 1-[6-((S)-3-Hydroxy-pyrrolidin-1-yl)-2-methyl-pyridin-3-yl]-8-(5-isopropoxy-pyridin-3-yl)-3-methyl-1,3-dihydro-imidazo[4,5-c]quinolin-2-one] | 7.20 | 8.66 | – |

Further lines, with some results ahead:

| pIC50 [2] | SMILES | pIC50 ([1]; read-out: p-S6 IC50) | pIC50 ([1]; read-out: p-S6) |
| --- | --- | --- | --- |
| 7.30 | Cc1nc(C(F)(F)F)ccc1-n1c(=O)n(C)c2cnc3ccc(-c4cncc(C(C)(C)O)c4)cc3c21 [Example 33.1, 8-[5-(1-Hydroxy-1-methyl-ethyl)-pyridin-3-yl]-3-methyl-1-(2-methyl-6-trifluoromethyl-pyridin-3-yl)-1,3-dihydro-imidazo[4,5-c]quinolin-2-one] | 8.70 | – |
| 7.48 | CCOc1ccc(-c2ccc3ncc4c(c3c2)n(-c2ccc(N3CCNCC3)nc2OC)c(=O)n4C)cn1 [Example 9.1, 8-(6-Ethoxy-pyridin-3-yl)-1-(2-methoxy-6-piperazin-1-yl-pyridin-3-yl)-3-methyl-1,3-dihydro-imidazo[4,5-c]quinolin-2-one] | – | 7.87 |
| 7.51 | Cc1nc(N2CCCC2)ccc1-n1c(=O)n(C)c2cnc3ccc(-c4cncc(C(C)(C)O)c4)cc3c21 [Example 25.3, 8-[5-(1-Hydroxy-1-methyl-ethyl)-pyridin-3-yl]-3-methyl-1-(2-methyl-6-pyrrolidin-1-yl-pyridin-3-yl)-1,3-dihydro-imidazo[4,5-c]quinolin-2-one] | > 9.34 | – |
| 7.71 | Cc1ncccc1-n1c(=O)n(C)c2cnc3ccc(-c4cncc(N5CCC5)c4)cc3c21 [Example 2.29, 8-(5-Azetidin-1-yl-pyridin-3-yl)-3-methyl-1-(2-methyl-pyridin-3-yl)-1,3-dihydro-imidazo[4,5-c]quinolin-2-one] | 8.30 | – |
| 7.66 | CNc1ncc(-c2ccc3ncc4c(c3c2)n(-c2ccc(N3CC(O)C3)nc2C)c(=O)n4C)cc1C(F)(F)F [Example 29.4, 1-[6-(3-Hydroxy-azetidin-1-yl)-2-methyl-pyridin-3-yl]-3-methyl-8-(6-methylamino-5-trifluoromethyl-pyridin-3-yl)-1,3-dihydro-imidazo[4,5-c]quinolin-2-one] | 8.77 | – |
| 7.73 | CNc1ccc(-c2ccc3ncc4c(c3c2)n(-c2cccnc2C)c(=O)n4C)cn1 [Example 2.13, 3-Methyl-8-(6-methylamino-pyridin-3-yl)-1-(2-methyl-pyridin-3-yl)-1,3-dihydro-imidazo[4,5-c]quinolin-2-one] | – | 8.56 |
| 7.44 | COC1CCN(c2ccc(-n3c(=O)n(C)c4cnc5ccc(-c6cncc(C(C)(C)O)c6)cc5c43)c(C)n2)C1 (stereo not drawn) [Example 28.1, 8-[5-(1-Hydroxy-1-methyl-ethyl)-pyridin-3-yl]-1-[6-(3-methoxy-pyrrolidin-1-yl)-2-methyl-pyridin-3-yl]-3-methyl-1,3-dihydro-imidazo[4,5-c]quinolin-2-one] | 9.00 | – |
| 7.72 | Cc1ncccc1-n1c(=O)n(C)c2cnc3ccc(-c4ccc(N)nc4)cc3c21 [Example 2.7, 8-(6-Amino-pyridin-3-yl)-3-methyl-1-(2-methyl-pyridin-3-yl)-1,3-dihydro-imidazo[4,5-c]quinolin-2-one] | – | 7.91 |
| 7.16 | Cc1nc(F)ccc1-n1c(=O)n(C)c2cnc3ccc(-c4cncc(C(C)(C)O)c4)cc3c21 [Example 7.8, 1-(6-Fluoro-2-methyl-pyridin-3-yl)-8-[5-(1-hydroxy-1-methyl-ethyl)-pyridin-3-yl]-3-methyl-1,3-dihydro-imidazo[4,5-c]quinolin-2-one] | 8.00 | – |
| 7.90 | CNc1ncc(-c2ccc3ncc4c(c3c2)n(-c2ccc(N3CC(F)(F)C3)nc2C)c(=O)n4C)cn1 [Example 24.1, 1-[6-(3,3-Difluoro-azetidin-1-yl)-2-methyl-pyridin-3-yl]-3-methyl-8-(2-methylamino-pyrimidin-5-yl)-1,3-dihydro-imidazo[4,5-c]quinolin-2-one] | 8.70 | – |
| 7.55 | CCNc1ncc(-c2ccc3ncc4c(c3c2)n(-c2ccc(N3CC[C@@H](O)C3)nc2C)c(=O)n4C)cc1COCC [Example 34.4, 8-(5-Ethoxymethyl-6-ethylamino-pyridin-3-yl)-1-[6-((R)-3-hydroxy-pyrrolidin-1-yl)-2-methyl-pyridin-3-yl]-3-methyl-1,3-dihydro-imidazo[4,5-c]quinolin-2-one] | 8.10 | – |
| > 8.34 | CCNc1cc(-c2ccc3ncc4c(c3c2)n(-c2ccc(N3CCC3)nc2C)c(=O)n4C)cnc1CO [Example 23.8, 1-(6-Azetidin-1-yl-2-methyl-pyridin-3-yl)-8-(5-ethylamino-6-hydroxymethyl-pyridin-3-yl)-3-methyl-1,3-dihydro-imidazo[4,5-c]quinolin-2-one] | 8.22 | – |
| 7.00 | Cc1ncccc1-n1c(=O)n(C)c2cnc3ccc(-c4cnc(N(C)C)nc4)cc3c21 [Example 2.15, 8-(2-Dimethylamino-pyrimidin-5-yl)-3-methyl-1-(2-methyl-pyridin-3-yl)-1,3-dihydro-imidazo[4,5-c]quinolin-2-one] | – | 7.17 |
| 6.83 | CCOc1ccc(-c2ccc3ncc4c(c3c2)n(-c2cnccc2C)c(=O)n4C)cn1 [Example 4.2, 8-(6-Ethoxy-pyridin-3-yl)-3-methyl-1-(4-methyl-pyridin-3-yl)-1,3-dihydro-imidazo[4,5-c]quinolin-2-one] | – | 6.34 |
| 8.00 | Cc1ncccc1-n1c(=O)n(C)c2cnc3ccc(-c4cnc(N)c(C(F)(F)F)c4)cc3c21 [Example 2.11, 8-(6-Amino-5-trifluoromethyl-pyridin-3-yl)-3-methyl-1-(2-methyl-pyridin-3-yl)-1,3-dihydro-imidazo[4,5-c]quinolin-2-one] | – | 8.63 |
